Data taken from US6251882A, “Alkyl ketones as potent anti-cancer agents” (Parker Hughes Institute, priority 1999, dated 2001).

Tests used:
BT-20 (breast cancer) = assay: MTT cytotoxicity assay, BT-20; format: cell-based; settings: Homo sapiens, 24-36 hours at 37° C., 0.1 to 250 μM
Description: (§1) Cytotoxicity of various compounds against tumor cells was performed using the MTT (3-[4,5-[…]]-2,5-diphenyl tetrazolium bromide) assay (Boehringer Mannheim Corp., Indianapolis, Ind.). Unless otherwise specified, all cell lines were obtained from the American Type Culture Collection (ATCC). Briefly, exponentially growing cells were seeded into a 96-well plate at a density of 2.5×10^4 cells/well and incubated for 36 hours at 37° C. prior to drug exposure. On the day of treatment, culture medium was carefully aspirated from the wells and replaced with fresh medium containing the indicated compound at concentrations ranging from 0.1 to 250 μM. Triplicate wells were used for each treatment.
(§2) Human leukemic cell lines (NALM-6, MOLT-3) glioblastoma cells (U373) and human breast tumor cell lines (BT20 and MDA-MB-231) were obtained from the American Type Culture Collection and maintained as a continuous cell line in Dulbecco's modified Eagles's medium supplemented with 10% fetal bovine serum and antibiotics.
(§3) The cells were incubated with the various compounds for 24-36 hours at 37° C. in a humidified 5% CO2 atmosphere. To each well, 10 μl of MTT (0.5 mg/ml final concentration) was added and the plates were incubated at 37° C. for 4 hours to allow MTT to form formazan crystals by reacting with metabolically active cells. The formazan crystals were solubilized overnight at 37° C. in a solution containing 10% SDS in 0.01 M HCl. The absorbence of each well was measured in a microplate reader (Labsystems) at 540 nm and a reference wavelength of […]. To translate the OD540 values into the number of live cells in each well, the OD540 values were compared to those on standard OD540 --versus--cell number curves generated for each cell line. The percent survival was calculated using the formula: [formula]
(§4) The IC50 values were calculated by non-linear regression analysis and are shown below in Tables 1-6.

U373 glioblastoma cells = assay: Cell invasion assay (Matrigel-coated Boyden chambers), U373; format: cell-based, human; settings: through Matrigel matrix, 1 μM to 25 μM, 48 hours (FIG. 5)
Description: (§5) The in vitro invasiveness of MDA-MB-231 breast cancer cells and U373 glioblastoma cells was assayed using a previously published method which employs Matrigel-coated Costar 24-well transwell cell culture chambers ("Boyden chambers") with 8.0-μm-pore polycarbonate filter inserts (Albini, et al., 1987, Cancer Res., 47:3239-3245). The chamber filters were coated with 50 μg/ml of Matrigel matrix, incubated overnight at room temperature under a laminar flow hood and stored at 4° C. Matrigel matrix is made up of several components of the extracellular matrix (ECM), including collagens, laminin and proteo-glycans.
(§6) On the day of the experiment, the coated inserts were rehydrated with 0.5 ml serum-free DMEM containing 0.1% bovine serum albumin for 1-2 hours. […] The cells were trypsinized, washed twice with serum-free DMEM containing BSA, counted and resuspended at 1×10^5 cells/ml. […] The invasive cells that migrated to the lower side of the filter were fixed, stained with Hema-3 solutions and counted under microscope. Five to 10 random fields per filter were counted to determine the mean (SE) values for the invasive fraction. The invasive fractions of cells treated with HI-131 were compared to those of DMSO treated control cells and the percent invading relative to the control was determined using the formula: [formula]
(§7) Each treatment condition was evaluated in duplicate in 3 independent experiments. […]

U-373 (glioblastoma) = assay: MTT cytotoxicity assay, U-373; format: cell-based; settings: Homo sapiens, U373 MG, 24-36 hours at 37° C., 0.1 to 250 μM
Description: as §1, §2, §3, §4

primary leukemia cells = assay: MTT cytotoxicity in primary cancer cells from six children with leukemia; format: cell-based, human; settings: 0 to 50 μM, all six patients
Description: as §1
The cells were incubated with the various compounds for 24-36 hours at 37° C. in a humidified 5% CO2 atmosphere. […] The absorbence of each well was measured in a microplate reader (Labsystems) at 540 nm and a reference wavelength of 690 um. […] The percent survival was calculated using the formula: [formula]
The cytotoxicity of HI-131 against primary cancer cells was evaluated in leukemia cells taken from six children (FIG. 1A), using the MTT assay described for Example 3. […] Percent survival was calculated as described for Example 3 and plotted against the HI-131 concentration used in the experiment. […]

NALM-6 cells = assay: Apoptosis induction, NALM-6 cells (in situ TUNNEL, confocal microscopy); format: cell-based, human
Description: The ability of HI-131 to induce apoptosis cells was evaluated in human leukemia in NALM-6 cells and primary leukemic cells from 2 patients. Cells were treated with 50 μM compound HI-131 for 24 hours. After incubation, the cells were harvested and analyzed for apoptosis by in situ TUNNEL analysis and confocal laser scanning microscopy as described in Sudbeck et al., 1999, Clin Cancer Res., 5:1589-82. Controls were treated with vehicle alone.
Induction of apoptosis was further evaluated in primary leukemic cells and established NALM-6 and MOLT-3 cell lines following treatment with HI-131.

[1] = tested on: MDA-MB-231 breast cancer cells; assay: Cell invasion assay (Matrigel-coated Boyden chambers), MDA-MB-231; format: cell-based, human; settings: through Matrigel matrix, 2.5 μM to 25 μM, 48 hours (FIG. 4)
Description: as §5, §6, §7

SMILES: CCCCCCCCCCCCSC[C@H](NC(C)=O)C(=O)CCl [HI-131, N-Ac-S-dodecyl-Cys chloromethyl ketone]
- IC50 (BT-20 (breast cancer)): 10 µM
- inhibition of invasion, U373 (U373 glioblastoma cells): inhibited the invasion
- IC50 (U-373 (glioblastoma)): 35.1 µM
- cytotoxic effect in primary cancer cells (primary leukemia cells): dose dependent cytotoxic effect
- apoptosis induction (TUNNEL/confocal), NALM-6 (NALM-6 cells; 50 μM, 24 hours): greatly induced apoptosis
- fold induction at 50 µM (NALM-6 cells; Homo sapiens, NALM-6, 24 h, vs vehicle control (FIG. 3)): ~20
- inhibition of invasion, MDA-MB-231 [1]: inhibited the invasion
